Experimental findings from patent US8957091B2, “Use of quinolinone derivatives as a research tool” (Centre National de la Recherche Scientifique, priority 2010, dated 2015) are described below.

What is called inhibition is how much of the control response was suppressed.

Structures are written as SMILES. “Also recorded” adds a separate entry of the source. Where two headings read alike, the source gives them in different places.

Holding throughout (format): cell-based
For one assay, the target named is T1, Smo1 sites (Mus musculus, UniProt P56726).
T1 construct: host or cells: C3H10T1/2
T1 sequence (P56726 33-793): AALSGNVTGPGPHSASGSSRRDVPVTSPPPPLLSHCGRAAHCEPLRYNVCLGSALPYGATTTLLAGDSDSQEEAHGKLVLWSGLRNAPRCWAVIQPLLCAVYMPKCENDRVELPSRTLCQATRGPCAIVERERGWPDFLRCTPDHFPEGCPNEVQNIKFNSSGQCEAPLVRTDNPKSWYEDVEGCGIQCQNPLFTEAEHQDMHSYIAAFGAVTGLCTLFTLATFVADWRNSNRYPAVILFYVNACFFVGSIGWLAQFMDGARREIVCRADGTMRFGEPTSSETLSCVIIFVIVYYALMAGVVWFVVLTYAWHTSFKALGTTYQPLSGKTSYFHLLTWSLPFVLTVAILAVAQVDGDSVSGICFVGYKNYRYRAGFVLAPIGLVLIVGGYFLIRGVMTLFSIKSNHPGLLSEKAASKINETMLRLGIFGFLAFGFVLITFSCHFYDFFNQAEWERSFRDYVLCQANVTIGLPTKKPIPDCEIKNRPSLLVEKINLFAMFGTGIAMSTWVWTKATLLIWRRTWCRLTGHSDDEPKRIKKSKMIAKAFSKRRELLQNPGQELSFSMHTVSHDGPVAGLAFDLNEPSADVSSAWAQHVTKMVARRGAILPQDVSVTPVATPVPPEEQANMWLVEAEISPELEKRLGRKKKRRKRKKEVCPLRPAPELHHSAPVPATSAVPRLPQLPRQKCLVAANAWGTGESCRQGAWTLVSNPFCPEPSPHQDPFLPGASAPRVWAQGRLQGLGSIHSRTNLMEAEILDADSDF
Description: Inhibition of C3H10T1/2 differentiation (alkaline phosphatase activity) induced by SAG. As to conditions: for IC50: alkaline phosphatase activity induced by SAG (0.1 μM). The procedure: (§1) The C3H10T1/2 cells were seeded onto 96-well plates at a density of 5×10^3 cells per well, 24 hours before the addition of the test compounds at a concentration ranging from 10 nM to 10 μM in DMEM culture medium supplemented with 10% of fetal calf serum. The tests were carried out in quadruplicate. The plates were then incubated for 5-6 days at a temperature of 37° C. under an atmosphere of 5% CO2. The cells were then washed in cold phosphate buffer (phosphate buffered saline: PBS) and then lysed by sonication at 4° C. in 50 μl of a solution containing 0.9% of NaCl and 0.2% of Triton X-100.
(§2) The alkaline phosphatase in the resulting lysates was then measured according to the method described by Pepinsky et al. (Pepinsky et al. 1998). After the addition of […] of reaction buffer (200 mM Tris-HCL; pH 10.5; 0.4 M of 2-amino-2-methylpropanol and 8 mM of MgCl2) and of 50 μl of substrate (4 mM of disodium p-nitrophenyl phosphate), the lysates were incubated at 37° C. for 30-60 min and then the optical density was read at a wavelength of 415 nm.

For another assay, the target named is T2, Smo2 sites (Mus musculus, UniProt P56726).
T2 construct: host or cells: C3H10T1/2
T2 sequence (P56726 33-793): as above
Description: Inhibition of C3H10T1/2 differentiation (alkaline phosphatase activity) induced by compound 1 or compound 6. As to conditions: for selectivity between Smo1 and Smo2 sites (in words): Smo1 stimulated by SAG, Smo2 stimulated by compound 1; for C3H10T1/2 cell differentiation IC50 Smo1/IC50 Smo2: ratio of mean IC50 values, Smo1 stimulated by SAG 0.1 μM, Smo2 by compound 1 1 μM. The procedure:
as §1, §2

The test system of assay [1] is C3H10T1/2 mesenchymal stem cells. Nature of the assay: Modulation by IWR1 of differentiation stimulated by compound 1 or SAG. Here is the method:
For the experiments in the presence of forskolin, compound 1 (1 μM) and SAG (0.3 μM) were used to stimulate differentiation in the presence of increasing concentrations (1, 3 and 10 μM) of forskolin (Sigma). The IWR1 compound (Sigma), for its part, was used at 10 μM on an activation by compound 1 at 1 μM or SAG at 0.1 μM. The alkaline phosphatase activity was measured as previously.

For the next assay, the system named is C3H10T1/2 cells. Description: Activation of osteogenic differentiation of C3H10T1/2 cells (alkaline phosphatase activity). As to conditions: for stimulation of osteogenesis: induction of alkaline phosphatase after 6 days. Here is the method: The pluripotent fibroblast cell line C3H10T1/2 (ATCC) was cultured under the conditions recommended by the ATCC. The stimulation of the differentiation of these cells was carried out using increasing concentrations of compounds according to the methods described by Chen et al. and Frank-Kamenetsky et al. (Chen et al. 2002; Frank-Kamenetsky et al. 2002). The activation by the compounds of general formula (I) causes differentiation of the cell line and enables the latter to express alkaline phosphatase. It was thus possible to measure the activity of the compounds via the measurement of alkaline phosphatase activity. By way of comparison, the activity of the SAG compound (Chen et al. 2002), an Smo activator, was tested under the same conditions as those used to test the compounds of general formula (I).
as §1, §2

Setting [2] is: alkaline phosphatase activity induced by compound 1 (1 μM), C3H10T1/2 cells, read-out: Smo2 IC50.
The mark [3] stands for this setting: alkaline phosphatase activity induced by compound 1 (1 μM), mean ± SEM of 2 to 6 experiments, read-out: IC50 μM, C3H10T1/2, Compound 1.
Where [4] appears, read: alkaline phosphatase activity induced by compound 6 (3 μM), mean ± SEM of 2 to 6 experiments, read-out: IC50 μM, C3H10T1/2, Compound 6.
[5] abbreviates: antagonist at 10 μM, induced by compound 1 (1 μM), C3H10T1/2 cells.
[6] abbreviates: C3H 10T1/2, antagonist at 10 μM, induced by SAG (0.1 μM), C3H10T1/2 cells, read-out: Smo1 Inhibition 10 μM.
The mark [7] stands for this setting: C3H 10T1/2, antagonist at 10 μM, induced by compound 1 (1 μM), C3H10T1/2 cells, read-out: Smo2 Inhibition 10 μM.

For `COc1cccc(CN(C(=O)CC(C)(C)C)[C@H]2C[C@@H](C(=O)N3CCNCC3)N(Cc3ccc4c(c3)OCO4)C2)c1` [Cur61414], the “selectivity for the Smo1 site compared with the Smo2 site” value at Smo1 sites (SAG versus compound 1 stimulation) is on record as 17 fold. For the same molecule, the “selectivity between Smo1 and Smo2 sites (in words)” value at Smo2 sites is on record as “much more selective with respect to Smo1 sites than Smo2 sites”. Besides, the IC50 was found to be 5.7 ± 1.6 µM at Smo2 sites (setting [2]), 5.7 ± 1.6 µM on Smo2 sites (setting [3]) and 7 ± 1 µM at Smo2 sites (setting [4]). Further, the “Smo2 Inhibition 10 μM” value on Smo2 sites (setting [5]) is recorded as “weaker inhibition”. Also, the “C3H10T1/2 cell differentiation IC50 Smo1/IC50 Smo2” value at Smo2 sites is given as 17.
As for `CC1=C2C[C@H]3[C@@H](CC=C4C[C@@H](O)CC[C@@]43C)[C@@H]2CC[C@]12O[C@@H]1C[C@H](C)CN[C@H]1[C@H]2C` [Cyclopamine, cyclopamine], the inhibition at 10 µM on Smo1 sites (C3H 10T1/2, read-out: Smo1 Inhibition 10 μM) amounted to 98%; at Smo2 sites (C3H 10T1/2, read-out: Smo2 Inhibition 10 μM), 48%. In addition, the “Smo1 Inhibition 10 μM” value at Smo1 sites (antagonist at 10 μM, induced by SAG (0.1 μM), C3H10T1/2 cells) is reported as “complete inhibition”. The “Smo2 Inhibition 10 μM” value at Smo2 sites (setting [5]) is given as “weaker inhibition”.
Consider `O=C(Nc1cccc2cccnc12)c1ccc(N2C(=O)[C@@H]3[C@H](C2=O)[C@@H]2C=C[C@H]3C2)cc1` [IWR1], for which the “effect on the activity of SAG” value in assay [1] (IWR1 10 μM, SAG at 0.1 μM) is reported as “does not modify; also recorded: does not affect”. Besides, in assay [1] (IWR1 10 μM, compound 1 at 1 μM), the “effect on the activity of compound 1 (in words)” value is given as “inhibits the activity of compound 1” and the “reduction of the activity of compound 1” value was 60%. For the same molecule, the IC50 in assay [1] (dose-response curve of compound 1 with IWR1, read-out: IC50 with respect to alkaline phosphatase inhibition) worked out at 2.5 µM.
In the case of `COc1cc(C(=O)NC(=O)Nc2cccc(NC(=O)c3ccccc3)c2)cc(OC)c1OC` [MRT-14], the values for the inhibition at 10 µM on Smo1 sites (setting [6]) and on Smo2 sites (setting [7]) were 100% and 95%, respectively. The IC50 at Smo1 sites (C3H10T1/2 cells) was 0.13 ± 0.05 µM; at Smo2 sites (response induced by compound 1, read-out: affinity (IC50) for compound 1), 0.32 µM; on Smo2 sites (response induced by compound 6, read-out: affinity (IC50) for compound 6), 0.4 µM. For the same molecule, the “selectivity between Smo1 and Smo2 sites (in words)” value on Smo2 sites is “comparable affinities”. Moreover, the “C3H10T1/2 cell differentiation IC50 Smo1/IC50 Smo2” value on Smo2 sites came out at 2.5.
As for `COc1cc(C(=O)NC(=S)Nc2cccc(NC(=O)c3ccc(-c4ccc(F)cc4)cc3)c2)cc(OC)c1OC` [MRT-79], on Smo2 sites, the “selectivity between Smo1 and Smo2 sites (in words)” value is “more selective with respect to Smo2 sites than the Smo1 sites”; the “C3H10T1/2 cell differentiation IC50 Smo1/IC50 Smo2” value is reported as 0.08.
On to `COc1cc(C(=O)NC(=S)Nc2ccc(C)c(NC(=O)c3ccc(-c4ccccc4)cc3)c2)cc(OC)c1OC` [MRT-81], for which the inhibition at 10 µM at Smo1 sites (setting [6]) and at Smo2 sites (setting [7]) was 100% throughout. The IC50 was determined as 0.06 ± 0.02 µM at Smo1 sites (C3H10T1/2 cells), 0.06 µM on Smo2 sites (setting [3]) and 0.06 µM at Smo2 sites (setting [4]). Besides, the “times more selective with respect to Smo2 sites” value at Smo2 sites (compound 1 versus SAG stimulation) came out at 1.3 times. Also, at Smo2 sites, the “C3H10T1/2 cell differentiation IC50 Smo1/IC50 Smo2” value worked out at 0.9.
With `Cc1nn(-c2ccccc2)c(C)c1/C=N/N1CCN(Cc2ccccc2)CC1` [SANT-1], the inhibition at 10 µM was 100% at Smo1 sites (setting [6]) and 71% on Smo2 sites (setting [7]). For the same molecule, the IC50 on Smo1 sites (C3H10T1/2 cells) turned out to be 0.04 ± 0.01 µM; at Smo2 sites (setting [2]), 0.06 ± 0.02 µM. Moreover, on Smo2 sites, the “selectivity between Smo1 and Smo2 sites (in words)” value was “comparable affinities”. The “C3H10T1/2 cell differentiation IC50 Smo1/IC50 Smo2” value at Smo2 sites stood at 1.5.
Consider `CCCCCCn1c(=O)c(C(=O)Nc2ccc(C(=O)OCCC)cc2)c(O)c2ccccc21` [compound 1, propyl 4-(1-hexyl-4-hydroxy-2-oxo-1,2-dihydroquinoline-3-carboxamido)benzoate], for which the “maximum stimulation compared with SAG” value with C3H10T1/2 cells (dose-response curves produced in parallel) is on record as “greater than that of the Smo agonist SAG”. In the assay on C3H10T1/2 cells, the stimulation of osteogenesis entry is given as “have the capacity to stimulate osteogenesis”.
Turning to `CCCCCCn1c(=O)c(C(=O)Nc2ccc(C(=O)OC(C)(C)C)cc2)c(O)c2ccccc21` [compound 6, tert-butyl 4-(1-hexyl-4-hydroxy-2-oxo-1,2-dihydroquinoline-3-carboxamido)benzoate], the stimulation of osteogenesis entry in the assay with C3H10T1/2 cells is reported as “have the capacity to stimulate osteogenesis”.
